Among the test systems are SF-268; A549; SN12C; HCC 2998; UACC-62; SK-MEL-5; IGROV-1; PC-3; U-251; UACC-257; SR; SK-MEL-2; K562; M14; UO-31; ACHN; SNB-75; KM12; OVCAR-5; SK-OV-3.
Common to all, as to assay: NCI tumour cell line growth inhibition, 48 h

Each structure is given as a SMILES string.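 Growth conditions: 96-well plates. Treatment: test compound, 48 hours, 5 concentrations. Analysis: linear interpolation between bracketing concentrations; unreached endpoints set to highest concentration. Abbreviation: GI50, concentration required for 50% inhibition of growth.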 The source made the active and inactive calls. Cut-off read from the data, not from the text of the source: active = GI50 up to about 1.1 µM and inactive = higher. Some results are limits rather than exact numbers.

In the case of `CCOC(=O)c1cn2c(n1)sc1c(Cl)c(Cl)ccc12`, the GI50 was 16.9 µM (inactive) in the assay with SF-268; 15.1 µM (inactive) in the assay on A549; 3.45 µM (inactive) with SN12C; 30.7 µM (inactive) in the assay on HCC 2998; 20.2 µM (inactive) in the assay with UACC-62; 6.7 µM (inactive) with SK-MEL-5. Also, the GI50 is 13.8 µM (inactive) in the assay with IGROV-1; 18.3 µM (inactive) with PC-3; 11 µM (inactive) with U-251; 28.2 µM (inactive) in the assay on UACC-257; 2.55 µM (inactive) in the assay on SR; 27.4 µM (inactive) with SK-MEL-2. For the same compound, the GI50 in the assay on K562 is 3.96 µM (inactive); in the assay on M14, 9.38 µM (inactive); in the assay on UO-31, 13.4 µM (inactive); in the assay on ACHN, 15.3 µM (inactive); in the assay on SNB-75, 15 µM (inactive); in the assay on KM12 it was 5.36 µM (inactive). In addition, the GI50 was 30.2 µM (inactive) with OVCAR-5 and > 51.8 µM (inactive) with SK-OV-3.
Take `c1ccc(CCCCNCc2cc(CNCCCCc3ccccc3)cc(CNCCCCc3ccccc3)c2)cc1`: the GI50 with SF-268 is 1.53 µM (inactive); with A549 it was 0.263 µM (active); in the assay on SN12C, 3.63 µM (inactive); in the assay on HCC 2998, 0.149 µM (active); with UACC-62, 1.76 µM (inactive); with SK-MEL-5, 1.81 µM (inactive). Besides, the GI50 with IGROV-1 is 0.815 µM (active); with PC-3, 1.41 µM (inactive); with U-251, 1.12 µM (inactive); in the assay with UACC-257 it was 0.859 µM (active); with SR, 0.216 µM (active); in the assay with SK-MEL-2 it was 1.82 µM (inactive). Also, the GI50 is 0.272 µM (active) with K562; 0.556 µM (active) in the assay on M14; 0.261 µM (active) in the assay on UO-31; 1.63 µM (inactive) with ACHN; 1.66 µM (inactive) in the assay with SNB-75; 0.544 µM (active) in the assay on KM12. In addition, the GI50 is 1.7 µM (inactive) with OVCAR-5 and 1.97 µM (inactive) in the assay with SK-OV-3.
Turning to `C=CCOC(=O)N1[C@H]2C#C/C=C\C#C[C@]3(O)C(=O)C[C@H](C)[C@]24O[C@]43C2=CC(=O)C=CC21OC` (stereo partly drawn), the GI50 is 50.6 µM (inactive) with SF-268; 23.2 µM (inactive) with A549; 25 µM (inactive) in the assay with SN12C; 26.5 µM (inactive) in the assay on HCC 2998; 31.2 µM (inactive) in the assay on UACC-62; 16.7 µM (inactive) in the assay on IGROV-1. For the same compound, the GI50 in the assay with PC-3 is 30.6 µM (inactive); in the assay on U-251 it was 37.7 µM (inactive); in the assay on UACC-257, 19.4 µM (inactive); in the assay with SR, 4.62 µM (inactive); with SK-MEL-2 it was 18 µM (inactive); in the assay on K562, 42.2 µM (inactive). The GI50 is 20.4 µM (inactive) with M14; 32 µM (inactive) with UO-31; 20.2 µM (inactive) in the assay with ACHN; 35.2 µM (inactive) in the assay on SNB-75; 32.9 µM (inactive) in the assay with KM12; 35.2 µM (inactive) in the assay with OVCAR-5. Further, in the assay with SK-OV-3, the GI50 is 60.1 µM (inactive).
As to `Cc1c(C)c(C)n(C2OC(CO)C(O)C(O)C2O)c(=S)c1C#N` (stereo not drawn), the GI50 in the assay on SF-268, in the assay on A549, in the assay on SN12C, in the assay on HCC 2998, with UACC-62 and in the assay with SK-MEL-5 was > 100 µM (inactive) each time. In addition, the GI50 with IGROV-1, with PC-3, with U-251, in the assay on UACC-257, with SR and with SK-MEL-2 was > 100 µM (inactive) in each case. The GI50 with K562, with M14, in the assay with UO-31, with ACHN, in the assay with SNB-75 and in the assay with KM12 was > 100 µM (inactive) throughout. Also, the GI50 with OVCAR-5 and with SK-OV-3 was > 100 µM (inactive) in each case.
`CC(=O)OCC1OC(NC(=S)Nn2c(-c3ccccc3)nc3ccccc3c2=O)C(OC(C)=O)C(OC(C)=O)C1OC(C)=O` (stereo not drawn): the GI50 with SF-268 was > 100 µM (inactive); in the assay on A549, > 100 µM (inactive); with SN12C it was 93.1 µM (inactive); with HCC 2998, 97.9 µM (inactive); in the assay with UACC-62, 51.5 µM (inactive); with SK-MEL-5, 35.8 µM (inactive). For the same compound, the GI50 is 33.8 µM (inactive) with IGROV-1; > 100 µM (inactive) with PC-3; > 100 µM (inactive) with U-251; > 100 µM (inactive) in the assay with UACC-257; 35.6 µM (inactive) with SR; 25.9 µM (inactive) in the assay on SK-MEL-2. For the same compound, the GI50 in the assay with K562 is > 100 µM (inactive); in the assay on M14, 62.7 µM (inactive); in the assay with UO-31, > 100 µM (inactive); in the assay on ACHN, > 100 µM (inactive); in the assay on SNB-75 it was 96.8 µM (inactive); with KM12 it was > 100 µM (inactive). In addition, the GI50 with OVCAR-5 and in the assay with SK-OV-3 was > 100 µM (inactive) throughout.
With `O=C1CCC(C(=O)O)C2=C1CCCC2` (stereo not drawn), the GI50 with SF-268 was > 100 µM (inactive); in the assay with A549, > 34 µM (inactive); with SN12C, > 100 µM (inactive); in the assay on HCC 2998 it was > 100 µM (inactive); in the assay on UACC-62, > 100 µM (inactive); in the assay on SK-MEL-5, > 56.1 µM (inactive). For the same compound, the GI50 was > 100 µM (inactive) with IGROV-1; > 100 µM (inactive) with PC-3; > 15.7 µM (inactive) in the assay with U-251; > 100 µM (inactive) with UACC-257; > 100 µM (inactive) with SR; > 100 µM (inactive) in the assay on SK-MEL-2. Besides, the GI50 in the assay on K562 is > 100 µM (inactive); in the assay with M14, > 100 µM (inactive); with ACHN, > 100 µM (inactive); in the assay with SNB-75, > 100 µM (inactive); in the assay on KM12, > 35.6 µM (inactive); in the assay with OVCAR-5 it was > 21.5 µM (inactive). Further, in the assay with SK-OV-3, the GI50 is > 43.4 µM (inactive).
`N#Cc1ccc(/N=N/N2CCCC2)cc1`: the GI50 is > 100 µM (inactive) in the assay on SF-268; > 100 µM (inactive) in the assay on SN12C; > 100 µM (inactive) in the assay on HCC 2998; > 100 µM (inactive) with UACC-62; 86.3 µM (inactive) with SK-MEL-5; > 100 µM (inactive) in the assay with IGROV-1. Besides, the GI50 was 83.8 µM (inactive) in the assay on PC-3; > 100 µM (inactive) with U-251; > 100 µM (inactive) in the assay on UACC-257; 15.2 µM (inactive) in the assay with SR; > 100 µM (inactive) with SK-MEL-2; 91 µM (inactive) in the assay with K562. In addition, the GI50 with M14 was > 100 µM (inactive); with UO-31, 69.8 µM (inactive); in the assay with ACHN, > 100 µM (inactive); in the assay on SNB-75, > 100 µM (inactive); in the assay with KM12, > 100 µM (inactive); with OVCAR-5 it was > 100 µM (inactive). In the assay on SK-OV-3, the GI50 was > 100 µM (inactive).
With `COc1cc2c3c(c1)CCCN3CCC2`, the GI50 in the assay with SF-268, with A549, in the assay on SN12C, in the assay with HCC 2998, with UACC-62 and in the assay with SK-MEL-5 was > 10 µM (inactive) in each case. Besides, the GI50 in the assay with IGROV-1, in the assay with PC-3, in the assay with U-251, in the assay on UACC-257, in the assay on SR and with SK-MEL-2 was > 10 µM (inactive) throughout. Besides, the GI50 in the assay with K562, with M14, in the assay on UO-31, in the assay on ACHN, with SNB-75 and with KM12 was > 10 µM (inactive) in each case. For the same compound, the GI50 with SK-OV-3 is > 10 µM (inactive).
As for `Cc1cnc2sn(-c3ccc(Oc4ccccc4)cc3)c(=O)c2c1`, the GI50 in the assay with SF-268 is 11.8 µM (inactive); in the assay with A549 it was 16.8 µM (inactive); with SN12C, 17.9 µM (inactive); with HCC 2998, 6.47 µM (inactive); in the assay with UACC-62, 10.3 µM (inactive); with SK-MEL-5, 9.59 µM (inactive). The GI50 was 14.7 µM (inactive) in the assay with IGROV-1; 13.4 µM (inactive) in the assay on PC-3; 17 µM (inactive) in the assay on U-251; 11.9 µM (inactive) in the assay with UACC-257; 7.06 µM (inactive) in the assay on SR; 28.3 µM (inactive) with SK-MEL-2. For the same compound, the GI50 in the assay on M14 is 7.43 µM (inactive); in the assay with UO-31, 19.5 µM (inactive); in the assay on ACHN it was 13.7 µM (inactive); in the assay with SNB-75 it was 17.9 µM (inactive); in the assay with KM12, 13.4 µM (inactive); in the assay on OVCAR-5, 18.4 µM (inactive). Besides, the GI50 with SK-OV-3 is 25.8 µM (inactive).
For the compound `COc1cccc2c(=O)oc(-c3ccccc3C)nc12`, the GI50 in the assay on SF-268 is 43.3 µM (inactive); in the assay on A549, 38.2 µM (inactive); in the assay on SN12C, 26.5 µM (inactive); in the assay on HCC 2998, 35 µM (inactive); with UACC-62, 62.1 µM (inactive); with SK-MEL-5, 23 µM (inactive). The GI50 in the assay with IGROV-1 was 18.7 µM (inactive); in the assay with PC-3, 35.7 µM (inactive); in the assay with U-251 it was 45.4 µM (inactive); in the assay with SR it was 49.4 µM (inactive); with SK-MEL-2 it was 26.6 µM (inactive); in the assay with K562, 39.8 µM (inactive). Moreover, the GI50 in the assay on UO-31 was 58.3 µM (inactive); with ACHN, 43 µM (inactive); with SNB-75, > 100 µM (inactive); with KM12, 38 µM (inactive); with OVCAR-5, 61.4 µM (inactive); with SK-OV-3, > 100 µM (inactive).

The values above are taken from ChEMBL document CHEMBL1201862, “PubChem BioAssay data set” (2004).
